The test system of assay [1] is urinary 11-dehydrothromboxane B2 (TXB2). Briefly: Test Example 3: urinary 11-dehydrothromboxane B2 by immunoenzyme assay, Compound Danshen Tablets study. The class given is in vivo, human. Conditions: group mean, n = 50; cardiovascular outpatients with tendency of aspirin resistance; drugs for at least half a year.
Description: 150 patients in this study were all selected from the cardiovascular outpatients having the tendency of aspirin resistance. All the patients, including 80 males and 70 females, aged between 70˜85, with the average age of 77. To treat aspirin resistance, 50 patients administered aspirin (aspirin group), 50 patients administered Compound Danshen Tablets (CDT group), and 50 patients administered aspirin and CDT simultaneously (combination therapy group). All the patients administered drugs for at least half a year before sampling.
The urinary sample was the middle section of the first urina of the day. The urinary sample was placed in the liquid nitrogen immediately after sampling and stored at −86□ in a low-temperature refrigerator. The urinary 11-dehydrothromboxane B2 (TXB2) was determined by immunoenzyme assay using the reagent kit of Cayman Chemical company. […] Information about patient grouping was double-blind for researchers and statisticians.
The test system is the same in assay [2]. The experiment in a line: Test Example 2: urinary 11-dehydrothromboxane B2 by immunoenzyme assay, CDDP study. The settings on record: group mean, n = 50; drugs for at least half a year. Format: in vivo, human. From the text:
This study adopted a reviewing method, and the normal value referred to the research results about aspirin resistance in Australia.
All 178 patients, including 140 males and 38 females, came from the retired personnel of the First Sanatorium, Bafenbu Sanatorium. The patients were aged 70˜87 and the average age was 77.1. 170 patients were randomly selected for sample test and the number of patients whose data could be accepted was 150 (IC20˜IC80). Of those enrolled in the study, in addition to aspirin resistance, 91 patients were afflicted with hypertension, 25 patients were afflicted with hyperlipidemia, 32 patients were afflicted with diabetes, 139 patients were afflicted with coronary heart disease, and 57 patients were afflicted with cerebrovascular diseases. […] All the patients administered drugs for at least half a year before sampling.
The urinary sample was the middle section of the first urina of the day. The urinary sample was placed in the liquid nitrogen immediately after sampling and stored at −86[…] in a low-temperature refrigerator. The urinary 11-dehydrothromboxane B2 (TXB2) was determined by immunoenzyme assay using the reagent kit of Cayman Chemical company. All the experiments were completed in the Biological Institute of Tasly Research Academy. Information about patient grouping was double-blind for researchers and statisticians. […]

The values that follow come from patent US20080305189A1, “TREATMENT OF ASPIRIN RESISTANCE WITH RADIX SALVIAE MILTIORRHIZAE, ITS EXTRACT AND COMPOSITION” (Tianjin Tasly Pharmaceutical Co., Ltd., priority 2003, published 2008).

In the case of `CC(=O)Oc1ccccc1C(=O)O` [Aspirin, aspirin], the “Urinary 11-dehydro TXB2, X ± SD” value in assay [1] turned out to be 25.05 ± 10.42 ng/mmol; in assay [2] it was 25.02 ± 10.51 ng/mmol.
